Test results published in patent US6387268B1 (priority 1998, dated 2002).
Where two headings read alike, the source gives them in different places.

Molecular target: rat α3/β4 nAChR (Rattus norvegicus, UniProt P04757+P12392)
Settings: 60 pM [3H]-EB; for retention volume of [3H]-EB: 9.5 ml without competitor
Protocol: The cultured cells in which rat α3/β4 subtype of neural nicotinic acetylcholine receptor (nAChR) were expressed by transfected cell line KXα3β4R2 were harvested in 30 ml of Tris-HCl buffer (50 mM, pH 7.4) and homogenized for 20 minutes with a Brinkman Polytron homogenizer. The homogenates were centrifuged at 35,000×g for 10 minutes and the supernatant was discarded. The resulting pellets were suspended in 6 ml of 2% cholate in Tris-HCl buffer (50 mM, pH 7.4) and stirred for two hours in an ice bath. After centrifugation at 35,000×g, the supernatant was collected for the immobilization. IAM packing materials (200 mg) were washed three times by centrifugation with Tris-HCl buffer (50 mM, pH 7.4). The IAM materials were suspended in 4 ml of receptor-detergent solution, stirred for one hour at room temperature and dialyzed against 2×1 L buffer for 24 hours at 4° C. When detergents were depleted from the mixture, the receptors were hydrophobically entrapped in the phospholipid monolayer on the surface of IAM materials. The receptor-IAM materials were washed with buffer by centrifugation at 4000×g.
The NR(α4β2)-IAM packing materials were packed in an HR glass column (Pharmacia Biotech) and connected with an HPLC pump. […] The elution profile was monitored by an on-line radioactivity HPLC detector.
The resulting column was used in the LC study of drug-NR binding using frontal chromatographic techniques with [^3H]-epibatidine (EB) as the marker ligand. A series of [^3H]-EB concentrations ranging from 60 pM to 600 pM were pumped through the (α3/β4)NR-IAM column2 to obtain elution profiles showing front and plateau regions. The concentration of the [^3H]-EB in the column eluent was monitored by an LC on-line radioactivity detector.
The binding of the [^3H]-EB on the (α3/β4)NR-IAM column was be altered by the addition of competitive NR-ligands to the mobile phase.

Chain of rat α3/β4 nAChR (P04757 26-499): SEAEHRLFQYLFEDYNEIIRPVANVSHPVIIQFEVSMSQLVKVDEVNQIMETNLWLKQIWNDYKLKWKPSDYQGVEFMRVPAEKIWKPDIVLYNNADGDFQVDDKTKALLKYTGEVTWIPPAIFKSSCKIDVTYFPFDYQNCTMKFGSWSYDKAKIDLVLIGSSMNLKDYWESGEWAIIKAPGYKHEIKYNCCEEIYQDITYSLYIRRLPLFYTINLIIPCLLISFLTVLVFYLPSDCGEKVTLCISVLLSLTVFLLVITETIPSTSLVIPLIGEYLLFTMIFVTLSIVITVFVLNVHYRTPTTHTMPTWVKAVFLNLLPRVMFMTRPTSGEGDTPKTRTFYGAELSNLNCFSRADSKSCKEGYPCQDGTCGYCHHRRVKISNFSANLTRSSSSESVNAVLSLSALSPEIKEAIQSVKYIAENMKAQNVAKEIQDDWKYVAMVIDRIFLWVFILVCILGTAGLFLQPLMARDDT
Chain of rat α3/β4 nAChR (P12392 22-495 limits assumed): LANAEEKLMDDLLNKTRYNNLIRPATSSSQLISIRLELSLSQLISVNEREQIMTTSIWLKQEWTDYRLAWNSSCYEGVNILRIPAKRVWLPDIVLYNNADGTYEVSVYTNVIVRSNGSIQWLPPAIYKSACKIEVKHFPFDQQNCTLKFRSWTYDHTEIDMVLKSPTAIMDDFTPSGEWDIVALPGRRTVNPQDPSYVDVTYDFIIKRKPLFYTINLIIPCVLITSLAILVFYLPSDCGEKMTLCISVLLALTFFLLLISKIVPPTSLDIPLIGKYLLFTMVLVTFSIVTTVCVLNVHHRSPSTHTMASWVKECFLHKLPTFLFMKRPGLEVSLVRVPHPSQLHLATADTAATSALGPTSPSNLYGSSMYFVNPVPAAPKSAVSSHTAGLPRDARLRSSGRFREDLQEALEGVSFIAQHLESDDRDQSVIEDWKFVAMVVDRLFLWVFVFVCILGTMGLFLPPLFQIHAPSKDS

Clc1ccc(C2CC3CCC2N3)cn1 (racemic) [(±)-EB, epibatidine]
mobile phase concentration required to decrease the retention volume of [3H]-EB from 9.5 ml to 6 ml: 120 pM

c1cncc(OC[C@@H]2CCN2)c1 [A85380]
mobile phase concentration required to decrease the retention volume of [3H]-EB from 9.5 ml to 6 ml: 1.7e+10 pM | retention volume of [3H]-EB (10 nM A85380 in mobile phase): 6.6 mL | retention volume of [3H]-EB (100 nM A85380 in mobile phase): 1.9 mL

C[N+](C)(C)CCOC(N)=O [carbachol]
mobile phase concentration required to decrease the retention volume of [3H]-EB from 9.5 ml to 6 ml: 1.3e+06 pM

CN1CCCC1c1cccnc1 (stereo not drawn) [nicotine]
mobile phase concentration required to decrease the retention volume of [3H]-EB from 9.5 ml to 6 ml: 45000 pM
